According to patent US20100092456A1, “METHODS OF TREATMENT” (priority 2006, published 2010):

Legend:
ING2 = assay: Western blot of endogenous ING2 associated with the CEF of MEL cells; assay type: cell-based, Murine; settings: MEL cells; 200 J/m UV; NAC 5 mM 4 hours, wortmannin 200 nM and 5 μM, curcumin 100 μM
Experimental: FIG. 4. A) Exponentially growing MEL cells were irradiated with either 200 J/m of UV light or 10 Gy of gamma radiation. After 30 minutes the CEF was isolated and the subjected to SDS-PAGE followed by transfer of the separated proteins to a nitrocellulose membrane. Western blotting for endogenous ING2 and histone 4 proteins was performed. Representative western blots are shown. B) Exponentially growing MEL cells were incubated in the absence or presence of N-acetyl cysteine (NAC) (5 mM) for 4 hours prior to a control irradiation or exposed to 200 J/m of UV light before the isolation of the CEF. Differentiated MEL cells were incubated in the absence or presence of H2O2 (500 μM) for 15 minutes prior to the isolation of the CEF. Proteins in the CEF were subjected to SDS-PAGE followed by transfer to a nitrocellulose membrane. Western blotting for endogenous ING2 and histone 4 proteins was performed. Representative western blots are shown. C) MEL cells were preincubated with either vehicle, wortmannin (200 nM and 5 μM) or curcumin (100 μM) were irradiated with 200 J/m of UV light. After 30 minutes the CEF was isolated and proteins were subjected to SDS-PAGE followed by transfer to a nitrocellulose membrane. Western blotting for endogenous ING2 and histone 4 proteins was performed. Representative western blots are shown. D) The CEF from transiently transfected MEL cells with either pSuper or pSuper-IIβRNAi was prepared. Proteins in the CEF were subjected to SDS-PAGE followed by transfer to a nitrocellulose membrane. […] Proteins were analysed by standard western blotting procedures employing the following antibodies: anti-tubulin and anti-flag (both from Sigma), anti-actin (Chemicon International), anti-histone 4 (Upstate Biotechnology), anti-phospho p54, anti-phospho p46, anti-phospho p38, total p54, total p46 and total p38 (all from Cell Signalling Technology) anti-ING2, anti EGFP (Clontech), anti-type II β PIP kinase, anti-GST and anti-myc (both generated in house).

PIKfyve = PIKfyve (Homo sapiens, UniProt Q9Y2I7); settings: background statement; cited from earlier work
Sequence of PIKfyve (Q9Y2I7 whole entry, species assumed): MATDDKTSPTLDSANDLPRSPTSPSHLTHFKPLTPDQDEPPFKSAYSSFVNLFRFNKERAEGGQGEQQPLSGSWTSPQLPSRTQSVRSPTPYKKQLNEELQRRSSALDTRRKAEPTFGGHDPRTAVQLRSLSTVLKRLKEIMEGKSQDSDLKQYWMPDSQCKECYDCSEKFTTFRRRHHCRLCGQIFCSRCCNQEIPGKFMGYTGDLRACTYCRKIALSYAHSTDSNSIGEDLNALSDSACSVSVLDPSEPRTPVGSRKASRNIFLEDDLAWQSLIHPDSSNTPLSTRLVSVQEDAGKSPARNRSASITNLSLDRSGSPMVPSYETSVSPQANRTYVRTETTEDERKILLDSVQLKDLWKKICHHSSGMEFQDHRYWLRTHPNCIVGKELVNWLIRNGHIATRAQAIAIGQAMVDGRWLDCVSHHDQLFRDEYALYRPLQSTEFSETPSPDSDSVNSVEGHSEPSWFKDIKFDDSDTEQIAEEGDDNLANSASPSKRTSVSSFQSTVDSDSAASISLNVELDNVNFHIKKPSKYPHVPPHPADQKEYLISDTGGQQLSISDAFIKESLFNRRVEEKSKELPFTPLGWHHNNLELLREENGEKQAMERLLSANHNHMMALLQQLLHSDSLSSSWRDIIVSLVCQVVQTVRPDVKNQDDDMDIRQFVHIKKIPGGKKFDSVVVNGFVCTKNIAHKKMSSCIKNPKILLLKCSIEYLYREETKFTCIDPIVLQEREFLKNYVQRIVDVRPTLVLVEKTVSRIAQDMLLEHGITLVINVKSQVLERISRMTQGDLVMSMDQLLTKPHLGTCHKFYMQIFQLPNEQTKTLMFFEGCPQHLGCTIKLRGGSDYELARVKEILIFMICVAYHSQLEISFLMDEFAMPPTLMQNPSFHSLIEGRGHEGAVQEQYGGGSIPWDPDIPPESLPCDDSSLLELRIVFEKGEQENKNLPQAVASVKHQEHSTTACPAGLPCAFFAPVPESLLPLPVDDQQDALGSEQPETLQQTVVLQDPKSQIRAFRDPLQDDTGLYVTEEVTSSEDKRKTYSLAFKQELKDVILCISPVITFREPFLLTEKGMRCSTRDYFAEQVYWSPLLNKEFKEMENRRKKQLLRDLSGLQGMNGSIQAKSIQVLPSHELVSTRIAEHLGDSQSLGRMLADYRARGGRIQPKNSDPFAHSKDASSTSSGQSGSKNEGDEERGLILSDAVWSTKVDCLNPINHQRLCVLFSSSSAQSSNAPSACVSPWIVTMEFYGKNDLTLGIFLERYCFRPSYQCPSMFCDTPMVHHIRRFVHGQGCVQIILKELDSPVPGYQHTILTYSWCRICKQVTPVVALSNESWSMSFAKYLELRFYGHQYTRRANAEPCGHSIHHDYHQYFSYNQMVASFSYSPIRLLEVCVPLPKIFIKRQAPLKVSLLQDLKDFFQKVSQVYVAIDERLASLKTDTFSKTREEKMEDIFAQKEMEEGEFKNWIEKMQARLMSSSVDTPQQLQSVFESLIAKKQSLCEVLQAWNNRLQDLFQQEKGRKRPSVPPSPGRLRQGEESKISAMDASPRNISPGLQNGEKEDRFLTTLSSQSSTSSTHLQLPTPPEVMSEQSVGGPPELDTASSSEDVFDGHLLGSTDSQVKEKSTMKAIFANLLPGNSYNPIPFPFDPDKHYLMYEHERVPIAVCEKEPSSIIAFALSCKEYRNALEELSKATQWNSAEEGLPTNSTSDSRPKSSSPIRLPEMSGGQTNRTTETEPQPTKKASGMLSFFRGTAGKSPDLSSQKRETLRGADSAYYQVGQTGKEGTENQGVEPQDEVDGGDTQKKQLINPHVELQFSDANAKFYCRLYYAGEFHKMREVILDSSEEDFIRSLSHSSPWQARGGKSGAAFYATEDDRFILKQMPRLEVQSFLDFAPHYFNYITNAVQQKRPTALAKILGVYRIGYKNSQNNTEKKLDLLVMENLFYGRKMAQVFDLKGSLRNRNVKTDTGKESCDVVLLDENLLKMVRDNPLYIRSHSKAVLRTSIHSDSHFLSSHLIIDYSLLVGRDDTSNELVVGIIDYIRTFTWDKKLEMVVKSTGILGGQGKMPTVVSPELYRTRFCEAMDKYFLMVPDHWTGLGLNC

MEL cells = assay: MEL cell viability and cell cycle profile; assay type: cell-based, Murine
Experimental: Ethanol fixed cells were incubated with prodium iodide (20 μg/ml) and RNAse (10 μg/ml) before cell cycle analysis by flow cytometry. Proteins were analysed by standard western blotting procedures employing the following antibodies: anti-tubulin and anti-flag (both from Sigma), anti-actin (Chemicon International), anti-histone 4 (Upstate Biotechnology), anti-phospho p54, anti-phospho p46, anti-phospho p38, total p54, total p46 and total p38 (all from Cell Signalling Technology) anti-ING2, anti EGFP (Clontech), anti-type II β PIP kinase, anti-GST and anti-myc (both generated in house).
To investigate the sub-nuclear localisation of UV-induced nuclear PtdInsPs, we fractionated nuclei to generate nucleoplasm (containing nuclear membranes and soluble nuclear material) and the chromatin enriched fraction (CEF) (FIG. 1c inset). […] Thus, the PtdInsP pool present in the CEF is a target for regulation in response to cellular stress.

[1] = tested on: PtdIns4P and PtdIns5P in the CEF of MEL cells; assay: Mass assay of PtdIns4P and PtdIns5P in the CEF of MEL cells with or without UV irradiation; assay type: cell-based, Murine; settings: MEL cells preincubated with wortmannin (200 nM and 5 μM) or curcumin (100 μM); 200 J/m UV; CEF after 30 minutes
Experimental: (§1) D) MEL cells were preincubated with either vehicle (DMSO) or wortmannin (200 nM and 5 μM) were irradiated with 200 J/m of UV light. After 30 minutes the CEF was isolated and a mass assay was used to determine the levels of PtdIns4P and PtdIns5P (expressed as % of control non-irradiated cells. The results are calculated from 3 independent experiments).
as §1, with “E)” for “D)”, “(ethanol)” for “(DMSO)”, “curcumin (100” for “wortmannin (200 nM and 5”, “irradiation.” for “light.”, “control, non curcumin-treated nor non UV-irradiated” for “control non-irradiated”
C) MEL cells were transiently transfected to express EGFP, EGFP-type II b PIP kinase and EGFP-IpgD/IpgE. In addition MEL cells were transfected with pSuper-IIβRNAi. […] A mass assay was used to determine the level of PtdIns5P (expressed as % of control non-irradiated cells. The results are calculated from 3 independent experiments). […]
MEL cells were washed, twice in ice cold PBS before their fractionation using a detergent-free hypotonic buffer. […] The protein content of all fractions was determined using the Bradford reagent (BioRad). PtdIns4P and PtdIns5P were measured using in vitro mass assays employing recombinant type I and type II PIP kinases, respectively. […]

SMILES: COc1cc(/C=C/C(=O)CC(=O)/C=C/c2ccc(O)c(OC)c2)ccc1O [curcumin]
- UV-induced translocation of endogenous ING2 to the CEF (ING2): completely inhibited
- inhibition of PIKfyve (PIKfyve): able to inhibit
- effect on MEL cell viability (MEL cells): no effect
- effect on the cell cycle profile (MEL cells; MEL cells, compound alone): no effect
- UV light-induced accumulation of PtdIns4P [1]: inhibited
- UV light-induced accumulation of PtdIns5P [1]: inhibited
